According to the supplement of paper PMC10307832:

Tests used:
Assay in all cases: relative viability (nuclei count vs DMSO), 5 days (fraction); higher = more cells survive
LCLC-103H = tested on: LCLC-103H
Procedure, shortened: (§1)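 For relative viability, nuclei counts in treated wells were divided by those in vehicle wells. Lung cancer cell lines had been pin-tool dosed in 1536-well plates the day after seeding and cultured for 5 days, then fixed and stained in one step (final 0.05% Triton X-100, 1% formaldehyde, 1 ug/ml Hoechst) and imaged at 4×. Doses were one drug alone or a fixed anchor-drug dose plus five library-drug doses (not always all listed) in √10 steps, and values are duplicate-plate medians.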

NCI-H358 = tested on: NCI-H358
Procedure, shortened: as §1

NCI-H2405 = tested on: NCI-H2405
Procedure, shortened: as §1

NCI-H1944 = tested on: NCI-H1944
Procedure, shortened: as §1

NCI-H2085 = tested on: NCI-H2085
Procedure, shortened: as §1

NCI-H2342 = tested on: NCI-H2342
Procedure, shortened: as §1

UMC-11 = tested on: UMC-11
Procedure, shortened: as §1

HCC-366 = tested on: HCC-366
Procedure, shortened: as §1

NCI-H1792 = tested on: NCI-H1792
Procedure, shortened: as §1

NCI-H1975 = tested on: NCI-H1975
Procedure, shortened: as §1

NCI-H661 = tested on: NCI-H661
Procedure, shortened: as §1

COR-L23 = tested on: COR-L23
Procedure, shortened: as §1

NCI-H1395 = tested on: NCI-H1395
Procedure, shortened: as §1

EPLC-272H = tested on: EPLC-272H
Procedure, shortened: as §1

COR-L 105 = tested on: COR-L 105
Procedure, shortened: as §1

HCC-15 = tested on: HCC-15
Procedure, shortened: as §1

NCI-H2023 = tested on: NCI-H2023
Procedure, shortened: as §1

HARA = tested on: HARA
Procedure, shortened: as §1

HCC-78 = tested on: HCC-78
Procedure, shortened: as §1

SK-MES-1 = tested on: SK-MES-1
Procedure, shortened: as §1

HCC-44 = tested on: HCC-44
Procedure, shortened: as §1

HCC-827 = tested on: HCC-827
Procedure, shortened: as §1

SK-LU-1 = tested on: SK-LU-1
Procedure, shortened: as §1

NCI-H1437 = tested on: NCI-H1437
Procedure, shortened: as §1

NCI-H727 = tested on: NCI-H727
Procedure, shortened: as §1

CCCCCCCCCCCC1=C(O)C(=O)C=C(O)C1=O [Embelin] + CC(=O)c1c(C)c2cnc(Nc3ccc(N4CCNCC4)cn3)nc2n(C2CCCC2)c1=O [Palbociclib] (partner 0.5 µM)
relative viability (LCLC-103H; first compound 0.08 µM): 0.496
relative viability (LCLC-103H; first compound 0.8 µM): 0.459
relative viability (LCLC-103H; first compound 2.53 µM): 0.461
relative viability (LCLC-103H; first compound 8 µM): 0.511
relative viability (NCI-H358; first compound 0.08 µM): 0.133
relative viability (NCI-H358; first compound 0.8 µM): 0.161
relative viability (NCI-H358; first compound 2.53 µM): 0.141
relative viability (NCI-H358; first compound 8 µM): 0.131
relative viability (NCI-H2405; first compound 0.08 µM): 0.543
relative viability (NCI-H2405; first compound 0.8 µM): 0.575
relative viability (NCI-H2405; first compound 2.53 µM): 0.511
relative viability (NCI-H2405; first compound 8 µM): 0.535
relative viability (NCI-H1944; first compound 0.08 µM): 0.346
relative viability (NCI-H1944; first compound 0.8 µM): 0.405
relative viability (NCI-H1944; first compound 2.53 µM): 0.381
relative viability (NCI-H1944; first compound 8 µM): 0.306
relative viability (NCI-H2085; first compound 0.08 µM): 0.441
relative viability (NCI-H2085; first compound 0.8 µM): 0.464
relative viability (NCI-H2085; first compound 2.53 µM): 0.502
relative viability (NCI-H2085; first compound 8 µM): 0.469
relative viability (NCI-H2342; first compound 0.08 µM): 0.54
relative viability (NCI-H2342; first compound 0.8 µM): 0.514
relative viability (NCI-H2342; first compound 2.53 µM): 0.542
relative viability (NCI-H2342; first compound 8 µM): 0.439
relative viability (UMC-11; first compound 0.08 µM): 0.337
relative viability (UMC-11; first compound 0.8 µM): 0.36
relative viability (UMC-11; first compound 2.53 µM): 0.323
relative viability (UMC-11; first compound 8 µM): 0.37
relative viability (HCC-366; first compound 0.08 µM): 0.35
relative viability (HCC-366; first compound 0.8 µM): 0.391
relative viability (HCC-366; first compound 2.53 µM): 0.49
relative viability (HCC-366; first compound 8 µM): 0.453
relative viability (NCI-H1792; first compound 0.08 µM): 0.625
relative viability (NCI-H1792; first compound 0.8 µM): 0.719
relative viability (NCI-H1792; first compound 2.53 µM): 0.723
relative viability (NCI-H1792; first compound 8 µM): 0.766
relative viability (NCI-H1975; first compound 0.08 µM): 0.601
relative viability (NCI-H1975; first compound 0.8 µM): 0.605
relative viability (NCI-H1975; first compound 2.53 µM): 0.783
relative viability (NCI-H1975; first compound 8 µM): 0.586
relative viability (NCI-H661; first compound 0.08 µM): 0.405
relative viability (NCI-H661; first compound 0.8 µM): 0.419
relative viability (NCI-H661; first compound 2.53 µM): 0.385
relative viability (NCI-H661; first compound 8 µM): 0.364
relative viability (COR-L23; first compound 0.08 µM): 0.346
relative viability (COR-L23; first compound 0.8 µM): 0.351
relative viability (COR-L23; first compound 2.53 µM): 0.313
relative viability (COR-L23; first compound 8 µM): 0.299
relative viability (NCI-H1395; first compound 0.08 µM): 0.599
relative viability (NCI-H1395; first compound 0.8 µM): 0.623
relative viability (NCI-H1395; first compound 2.53 µM): 0.65
relative viability (NCI-H1395; first compound 8 µM): 0.563
relative viability (EPLC-272H; first compound 0.08 µM): 0.361
relative viability (EPLC-272H; first compound 0.8 µM): 0.328
relative viability (EPLC-272H; first compound 2.53 µM): 0.358
relative viability (EPLC-272H; first compound 8 µM): 0.324
relative viability (COR-L 105; first compound 0.08 µM): 0.435
relative viability (COR-L 105; first compound 0.8 µM): 0.399
relative viability (COR-L 105; first compound 2.53 µM): 0.405
relative viability (COR-L 105; first compound 8 µM): 0.439
relative viability (HCC-15; first compound 0.08 µM): 0.703
relative viability (HCC-15; first compound 0.8 µM): 0.757
relative viability (HCC-15; first compound 2.53 µM): 0.857
relative viability (HCC-15; first compound 8 µM): 0.774
relative viability (NCI-H2023; first compound 0.08 µM): 0.379
relative viability (NCI-H2023; first compound 0.8 µM): 0.345
relative viability (NCI-H2023; first compound 2.53 µM): 0.455
relative viability (NCI-H2023; first compound 8 µM): 0.351
relative viability (HARA; first compound 0.08 µM): 0.269
relative viability (HARA; first compound 0.8 µM): 0.324
relative viability (HARA; first compound 2.53 µM): 0.301
relative viability (HARA; first compound 8 µM): 0.32
relative viability (HCC-78; first compound 0.08 µM): 0.514
relative viability (HCC-78; first compound 0.8 µM): 0.446
relative viability (HCC-78; first compound 2.53 µM): 0.558
relative viability (HCC-78; first compound 8 µM): 0.48
relative viability (SK-MES-1; first compound 0.08 µM): 0.366
relative viability (SK-MES-1; first compound 0.8 µM): 0.374
relative viability (SK-MES-1; first compound 2.53 µM): 0.321
relative viability (SK-MES-1; first compound 8 µM): 0.297
relative viability (HCC-44; first compound 0.08 µM): 0.951
relative viability (HCC-44; first compound 0.8 µM): 1.02
relative viability (HCC-44; first compound 2.53 µM): 0.984
relative viability (HCC-44; first compound 8 µM): 0.979
relative viability (HCC-827; first compound 0.08 µM): 0.506
relative viability (HCC-827; first compound 0.8 µM): 0.486
relative viability (HCC-827; first compound 2.53 µM): 0.511
relative viability (HCC-827; first compound 8 µM): 0.461
relative viability (SK-LU-1; first compound 0.08 µM): 0.419
relative viability (SK-LU-1; first compound 0.8 µM): 0.41
relative viability (SK-LU-1; first compound 2.53 µM): 0.621
relative viability (SK-LU-1; first compound 8 µM): 0.274
relative viability (NCI-H1437; first compound 0.08 µM): 0.313
relative viability (NCI-H1437; first compound 0.8 µM): 0.3
relative viability (NCI-H1437; first compound 2.53 µM): 0.391
relative viability (NCI-H1437; first compound 8 µM): 0.335
relative viability (NCI-H727; first compound 0.08 µM): 0.657
relative viability (NCI-H727; first compound 0.8 µM): 0.701
relative viability (NCI-H727; first compound 2.53 µM): 0.693
relative viability (NCI-H727; first compound 8 µM): 0.661
